Source: US7704986B2, “Vitamin D3 analogues for the prevention and treatment of bone disorders” (K.U. Leuven Research and Development, priority 2004, dated 2010)

Key:
[1] = biological target: T1, human vitamin D binding protein (hDBP) (Homo sapiens, UniProt P02774); experiment: Affinity for human vitamin D binding protein; settings: hDBP 0.18 μM, 4° C. 3 hours; 1,25(OH)2D3 = 100
T1 sequence (P02774 17-474): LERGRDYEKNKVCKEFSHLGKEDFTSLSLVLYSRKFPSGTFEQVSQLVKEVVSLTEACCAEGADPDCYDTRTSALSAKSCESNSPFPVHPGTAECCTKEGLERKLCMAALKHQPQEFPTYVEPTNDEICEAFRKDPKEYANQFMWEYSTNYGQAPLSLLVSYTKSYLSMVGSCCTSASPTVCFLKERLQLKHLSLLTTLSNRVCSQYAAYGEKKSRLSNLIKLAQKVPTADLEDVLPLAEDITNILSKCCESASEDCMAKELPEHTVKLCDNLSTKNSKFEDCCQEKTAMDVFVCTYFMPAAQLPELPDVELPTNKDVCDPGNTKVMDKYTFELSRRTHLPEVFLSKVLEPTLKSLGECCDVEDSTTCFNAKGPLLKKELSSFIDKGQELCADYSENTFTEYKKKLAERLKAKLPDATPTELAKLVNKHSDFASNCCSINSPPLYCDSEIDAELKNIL
Procedure: Binding of 1α,25(OH)2D3 analogues to hDBP was performed at 4° C. […] Phase separation was then obtained by the addition of 0.5 ml of cold dextran-coated charcoal.

NMRI mice = experiment: In vivo activity: serum and femur calcium after 7 daily i.p. injections; settings: dose 0.2 μg/kg/d i.p., 7 days; * in cell = P < 0.05
Procedure: Eight weeks old, male NMRI mice were fed a vitamin D-replete diet (0.2% calcium, 1% phosphate, 2000 U vitamin D/kg; Hope Farms, Woerden, The Netherlands). Groups of six mice were intraperitoneally injected daily during 7 consecutive days with different doses of 1,25(OH)2D3 (0.2 and 0.4 μg/kg/day) or analogues. The control group was injected with vehicle (arachis oil). The average weight of each group of 6 mice was determined at the beginning and at the end of the experiment. The following parameters were evaluated: serum calcium and femur calcium. Serum calcium was measured by a microcolorimetric assay (Sigma, St. Louis, Mo.). Femurs were removed and femur calcium content was measured in HCl-dissolved bone ash (obtained by heating for 24 hours in an oven at 100° C.), using the same technique as for serum calcium. Student's t-tests were carried out to detect significant differences; p<0.05 was accepted as significant. […]

C[C@H](CC#CC(O)(C(F)(F)F)C(F)(F)F)[C@@]1(C)CC[C@@H](/C=C/C=C2C[C@@H](O)C[C@H](O)C2)C1(C)C [MV2, (1R,3R)-5-((E)-3-((1S,3R)-3-((1R)-6,6,6-trifluoro-5-hydroxy-1-methyl-5-trifluoromethyl-3-hexynyl)-2,2,3-trimethylcyclopentyl)-2-propenylidene)cyclohexane-1,3-diol]
DBP (relative affinity) [1]: 7%
Serum calcium vs. control (%) (NMRI mice): 97%
femur calcium vs. control (%) (NMRI mice): 112* %
